The nature of data set [1]: Body weight in the AngioChamber study. It counts as in vivo. Particulars: female FvB mice; Day 0 to Day 5; 60 mg/kg p.o. daily. As to the method:
Body weight measurements were recorded for all animals on the first treatment day (Day 0) and then daily until the termination day of the study (Day 5).
Each animal's body weight was measured immediately prior to dosing. The volume of dosing solution administered to each animal was calculated and adjusted based on individual body weight.
All statistical calculations were performed using SigmaStat 3.0 (SPSS Australasia, North Sydney, NSW, Australia). A paired t-test was used to determine the significance in body weight change within a treatment group between Day 0 and the termination day of the study. […] Significant induction of the fibrous capsule formation by bFGF is considered to be essential to accept the study results. A One-Way Analysis of Variance (ANOVA) was performed on the capsule weight data at the end of the study. Where significant differences were found, All Pairwise Multiple Comparison and Multiple Comparison versus Control Group Procedures (Holm-Sidak Method) were performed. A p value of less than 0.05 was considered significant.

The subject of data set [2] is bFGF-induced angiogenesis. The data set can be described thus: AngioChamber assay (fibrous capsule wet weight). It counts as in vivo. Particulars: female FvB mice, once daily Day 0-4, capsule excised Day 5, p<0.05. From the text:
The AngioChamber™ assay utilises the normal physiological process of wound healing, to promote fibrous capsule formation around an implanted chamber (Wood, J. M., Bold, G., Buchdunger, E., Cozens, R., et al. PTK787/ZK 222584, a Novel and Potent Inhibitor of Vascular Endothelial Growth Factor Tyrosine Kinases, Impairs Vascular Endothelial Growth Factor-Induced Responses and Tumour Growth After Oral Administration. Cancer Research, 60 (8):2178-2189 (2000)). The inclusion of Basic Fibroblast Growth Factor (bFGF) in the chamber supports the fibrouse capsule formation while inducing blood vessel development. […] The fibrous capsule around the chamber was removed and the wet weight recorded. […] The vascularised fibrous capsule that had formed around each chamber was carefully removed and the wet weight recorded immediately. Angiogenesis inhibition by Test Articles (%) was calculated using the following formula: % Inhibition=[(A−B)/(A−C)×100] where A is the mean capsule weight from mice with implanted AngioChambers™ containing growth factor and treated with Vehicle Control (Group 2), B is the mean capsule weight from mice with implanted AngioChambers™ containing growth factor and treated with Test Article (Groups 3-5), and C is the mean capsule weight from mice with implanted AngioChambers™ without growth factor and treated with Vehicle Control (Group 1). […]

Another data set has as its system HCT-15. The experiment in a line: CellTiter-Blue cell growth assay, HCT-15. The data set is classed as cell-based, human. Particulars: 72 hours, Tables 11-13. The procedure: (§1) All the cell lines used in these studies were of human origin and were sourced from the American Type Culture Collection (ATCC) (Rockville, Md., USA).
(§2) The cells were cultured at 37° C. in a humidified cell culture incubator supplied with 95% air/5% CO2.
(§3) Test Article concentrations were tested in triplicates for each cell line. The CellTiter-Blue® Assay was carried out on all plates 72 hours post addition of Test Articles.
(§4) Following incubation of cells in Test Article-containing media, 10 μL of CellTiter-Blue® was added to each well and incubated with cells for up to 4 hours. Fluorescence was measured using a Spectramax Gemini XPS Fluorometer. All data were recorded and entered into Microsoft® Excel spreadsheets for interpretation.
(§5) Data collected from CellTiter-Blue® assays were plotted as dose response curves for IC50 determination, and as isobolograms to assess the type of interaction between Test Article combinations. For IC50 determinations, growth inhibition was calculated and plotted against compound concentration. In these plots, the X-axis (compound concentration) was represented in a logarithmic scale. IC50 concentration was calculated as the half maximal (50%) inhibitory concentration (IC) for each compound using GraphPad Prism version 5.0 for Mac OSX (GraphPad Software, San Diego Calif., USA).
Background: Resazurin is reduced to fluorescent resorufin, in cell work by metabolically active cells.

For the next data set, the system named is HCT-15 cells. The data set can be described thus: Isobolographic combination assay, HCT-15 cells. The data set is classed as cell-based, human. As to the method:
(§6) The dose-response relations of agents can be used to construct a model giving the expected effect of a combination. The combination of drugs A and B shall be termed (da,db) where da and db are doses of A and B. Effect is treated as a mathematical function, E(da,db). E is sometimes expressed as a fractional effect, then the survival fraction is S: S=1-E. Finally, Da and Db are doses of drugs A and B given separately, which produce an isoeffective response with the combination. Isoboles (iso-effect curves) can be constructed based on the assumption that there is no interaction between the drugs used in combination. The combination (da, db) is represented by a point on a graph that has axes representing doses of the individual drugs. […]
(§7) This ratio is also called g value and it used to determine the type of interaction. In this case the calculated isobole is concave. […]
(§8) The initial concentrations for each compound in each cell line were decided based on the calculated IC50 in a way that the IC50 for each drug fell within the concentration in the dilution series. […]
(§9) Following incubation of cells in Test Article-containing media, 10 μL of CellTiter-Blue® was added to each well and incubated with cells for up to 4 hours. Fluorescence was measured using a Spectramax Gemini XPS Fluorometer. All data were recorded and entered into Microsoft® Excel spreadsheets for interpretation. […]

The next data set concerns MIAPaCa-2 cells. The experiment in a line: Isobolographic combination assay, MIAPaCa-2 cells. It counts as cell-based, human. As to the method:
as §6, §7, §8, §9

In another data set the test system is A-549 cells. The data set can be described thus: Isobolographic combination assay, A-549 cells. The data set is classed as cell-based, human. As to the method: as §6, §7, §8, §9
In data set [3] the test system is A-549, HCT-15 and MIAPaCa-2 cells. The data set can be described thus: CellTiter-Blue cell growth assay, three selected cell lines together. It counts as cell-based, human. The procedure: as §1, §2, §3, §4, §5
A further data set concerns A549. The data set can be described thus: CellTiter-Blue cell growth assay, A549. It counts as cell-based, human. Particulars: A-549; 72 hours; Tables 11-13. The procedure:
as §1, §2, §3, §4, §5

A further data set deals with MIAPaCa-2. The data set can be described thus: CellTiter-Blue cell growth assay, MIAPaCa-2. The note with it: 72 hours, Tables 11-13. It counts as cell-based, human. The procedure:
as §1, §2, §3, §4, §5

The conditions of data set [4]: background statement; cited from earlier work.

With `CNC(=O)c1cc(Oc2ccc(NC(=O)Nc3ccc(Cl)c(C(F)(F)F)c3)cc2)ccn1` [Sorafenib], the “body weight loss at termination of the study” value in [1] stood at 5.6%. Further, the “angiogenesis (capsule wet weight) compared to the Induction Control (Vehicle Control with bFGF)” value in [2] (JBp1 and JBp1-DCM i.p., Sorafenib 60 mg/kg p.o.) was “significant reduction in angiogenesis”. In data set [2], the “angiogenesis (capsule wet weight) compared with JBp1 monotherapy” value is “significantly reduced angiogenesis”.

For the compound Trypsinogen, the entries for the “IC50 values” with HCT-15, in the data set with A549 and with MIAPaCa-2 were 410 µg/mL, 230 µg/mL and 280 µg/mL, respectively. For the same compound, the “Maximum Inhibition (%)” value with HCT-15 was determined as 77.2%; in the data set on A549, 75.7%; with MIAPaCa-2 it was 82.3%. The “type of interaction in combination with chymotrypsinogen (isobolographic, in words)” value with HCT-15 cells is listed as “non-antagonistic interaction”; in the data set on MIAPaCa-2 cells it was “wide-range of synergistic interaction”; in the data set with A-549 cells, “wide-range of synergistic interaction”. Also, the entries for the “type of interaction in combination with α-amylase (isobolographic, in words)” value in the data set with HCT-15 cells, in the data set with MIAPaCa-2 cells and with A-549 cells were “non-synergistic interaction”, “wide-range type” and “narrow-range type”, respectively. In addition, the “IC50 values, range over all three cell lines” value in data set [3] lay within 230 to 410 µg/mL.

Regarding `C[Se]CC[C@H](N)C(=O)O` [selenomethionine], the “toxic level (organic forms of selenium)” value in data set [4] is recorded as “about 3500 micrograms daily”.

(Values after US10350239B2, “Pharmaceutical composition for treating cancer comprising trypsinogen and/or chymotrypsinogen and an active agent selected from a selenium compound, a vanilloid compound and a cytoplasmic glycolysis reduction agent” (Propanc Pty Ltd, priority 2009, dated 2019).)
